Assay [1] concerns the target human D3 dopamine receptor (Homo sapiens, UniProt P35462). The assay can be described thus: Competition binding, [125I]IABN, HEK 293 cells transfected with human D3. To be noted: for D4/D3: Table 2, ratio of Ki values.
The target in a further assay is dopamine D3 receptor (Homo sapiens, UniProt P35462). As to the kind of experiment: Quinpirole-stimulated mitogenesis assay, D3.
For another assay, the target named is D2 receptor (Homo sapiens, UniProt P14416). As to the kind of experiment: D2 binding assay by the contractor.
Chain of D2 receptor (P14416 whole entry): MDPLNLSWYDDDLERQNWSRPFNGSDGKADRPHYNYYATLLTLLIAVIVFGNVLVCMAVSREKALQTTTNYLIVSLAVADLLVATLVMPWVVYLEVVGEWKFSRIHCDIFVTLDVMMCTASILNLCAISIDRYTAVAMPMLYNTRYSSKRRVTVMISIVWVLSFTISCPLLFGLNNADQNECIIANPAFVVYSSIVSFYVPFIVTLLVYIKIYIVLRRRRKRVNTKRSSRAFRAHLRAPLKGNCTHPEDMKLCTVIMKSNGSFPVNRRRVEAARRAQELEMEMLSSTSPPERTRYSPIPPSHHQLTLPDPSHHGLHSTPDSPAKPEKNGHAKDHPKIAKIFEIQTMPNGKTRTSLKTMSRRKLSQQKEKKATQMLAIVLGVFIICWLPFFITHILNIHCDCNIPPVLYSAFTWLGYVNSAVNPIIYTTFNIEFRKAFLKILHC

The Ki is a measure of affinity in units of concentration, obtained from inhibition or displacement. Higher therefore signals lower affinity. The term EC50 denotes the concentration needed to bring the measured effect to its halfway point.

Chain of human D3 dopamine receptor (P35462 whole entry): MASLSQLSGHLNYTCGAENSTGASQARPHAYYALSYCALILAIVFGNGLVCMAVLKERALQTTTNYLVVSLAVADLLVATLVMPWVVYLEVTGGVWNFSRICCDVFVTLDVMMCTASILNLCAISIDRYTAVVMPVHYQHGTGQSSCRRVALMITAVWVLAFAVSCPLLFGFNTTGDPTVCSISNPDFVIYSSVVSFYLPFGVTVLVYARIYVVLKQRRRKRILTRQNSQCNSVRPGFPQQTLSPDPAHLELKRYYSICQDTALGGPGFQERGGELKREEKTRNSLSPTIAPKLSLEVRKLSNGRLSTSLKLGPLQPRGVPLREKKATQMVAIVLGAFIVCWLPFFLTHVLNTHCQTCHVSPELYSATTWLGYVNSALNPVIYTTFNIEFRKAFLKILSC
Chain of dopamine D3 receptor (P35462 whole entry): as above

As to `COc1ccccc1N1CCN(CCCCNC(=O)c2cc3cc(I)ccc3o2)CC1` [Compound 14, 5-Iodo-N-(4-(4-(2-methoxy-phenyl)piperazin-1-yl)butyl)benzofuran-2-carboxamide], the “D3 selectivity over D2 (binding)” value in assay [1] (from Ki values) was greater than 100 fold.

Consider `COc1ccccc1N1CCN(CC(O)CCNC(=O)c2cc3cc(F)ccc3[nH]2)CC1` (centres unmarked) [Compound 26, 5-Fluoro-N-(3-hydroxy-4-(4-(2-methoxy-phenyl)piperazin-1-yl)butyl)-1H-indole-2-carboxamide], for which the “D3 selectivity over D2 receptor mediated mitogenesis” value on dopamine D3 receptor is listed as roughly 100 fold.

For `COc1ccc2[nH]c(C(=O)NCCC(O)CN3CCN(c4cccc(Cl)c4Cl)CC3)cc2c1` (centres unmarked) [Compound 29, N-(4-(4-(2,3-Dichloro-phenyl)piperazin-1-yl)-3-hydroxybutyl)-5-methoxy-1H-indole-2-carboxamide], the Ki on D2 receptor is greater than 400 nM; in assay [1], 1 nM.

With `COc1ccc2[nH]c(C(=O)NCCC(O)CN3CCN(c4ccccc4OC)CC3)cc2c1` (centres unmarked) [Compound 30, N-(3-Hydroxy-4-(4-(2-methoxy-phenyl)piperazin-1-yl)butyl)-5-methoxy-1H-indole-2-carboxamide], the Ki on D2 receptor is greater than 400 nM. Moreover, the EC50 at dopamine D3 receptor was 13.7 nM.

Take `O=C(NCCC(O)CN1CCN(c2cccc(Cl)c2Cl)CC1)c1cc2ccccc2o1` (centres unmarked) [Compound 31, N-(4-(4-(2,3-Dichloro-phenyl)piperazin-1-yl)-3-hydroxybutyl)benzofuran-2-carboxamide]: in assay [1], the D4/D3 was greater than 1600.

For the compound `O=C(NCCC(O)CN1CCN(c2cccc(Cl)c2Cl)CC1)c1cc2cc(I)ccc2o1` (centres unmarked) [Compound 33, N-(4-(4-(2,3-Dichloro-phenyl)piperazin-1-yl)-3-hydroxybutyl)-5-iodobenzofuran-2-carboxamide], the D4/D3 in assay [1] was greater than 1300.

(Values after PMC2760932 (Journal of medicinal chemistry, 2009).)
